The values that follow come from patent publication US8389500B2, “Fused heterocyclic compounds as ion channel modulators” (Gilead Sciences, Inc., priority 2008, dated 2013).

For the test, the target named is T1, wild-type human cardiac sodium channel, hNav1.5 (late sodium current) (Homo sapiens, UniProt Q14524).
T1 construct: host or cells: HEK293
The test can be described thus: Late INa screening assay (PatchXpress whole cell patch clamp). The format is cell-based. Conditions: HEK293 hNav1.5, late INa generated with 10 μM Tefluthrin (some experiments 50 nM ATX II); for inhibition at 10 µM: 10 μM test compound, read-out: Late INa % blk (10 μM test cmpd); for inhibition at 1 µM: 1 μM test compound, read-out: Late INa % blk (1 μM test cmpd). Summed up: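 Late sodium current block was assessed by automated whole cell patch clamp on a PatchXpress 7000A using HEK293 cells stably expressing wild-type human hNav1.5 without beta subunits. Late current was induced with 10 μM Tefluthrin or 50 nM ATX II. Channels were stepped from −120 mV to −20 mV for 250 ms at 0.1 Hz at 24-27° C. Current was normalized to 0Na baseline and expressed as percent block.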

T1 sequence (Q14524 whole entry): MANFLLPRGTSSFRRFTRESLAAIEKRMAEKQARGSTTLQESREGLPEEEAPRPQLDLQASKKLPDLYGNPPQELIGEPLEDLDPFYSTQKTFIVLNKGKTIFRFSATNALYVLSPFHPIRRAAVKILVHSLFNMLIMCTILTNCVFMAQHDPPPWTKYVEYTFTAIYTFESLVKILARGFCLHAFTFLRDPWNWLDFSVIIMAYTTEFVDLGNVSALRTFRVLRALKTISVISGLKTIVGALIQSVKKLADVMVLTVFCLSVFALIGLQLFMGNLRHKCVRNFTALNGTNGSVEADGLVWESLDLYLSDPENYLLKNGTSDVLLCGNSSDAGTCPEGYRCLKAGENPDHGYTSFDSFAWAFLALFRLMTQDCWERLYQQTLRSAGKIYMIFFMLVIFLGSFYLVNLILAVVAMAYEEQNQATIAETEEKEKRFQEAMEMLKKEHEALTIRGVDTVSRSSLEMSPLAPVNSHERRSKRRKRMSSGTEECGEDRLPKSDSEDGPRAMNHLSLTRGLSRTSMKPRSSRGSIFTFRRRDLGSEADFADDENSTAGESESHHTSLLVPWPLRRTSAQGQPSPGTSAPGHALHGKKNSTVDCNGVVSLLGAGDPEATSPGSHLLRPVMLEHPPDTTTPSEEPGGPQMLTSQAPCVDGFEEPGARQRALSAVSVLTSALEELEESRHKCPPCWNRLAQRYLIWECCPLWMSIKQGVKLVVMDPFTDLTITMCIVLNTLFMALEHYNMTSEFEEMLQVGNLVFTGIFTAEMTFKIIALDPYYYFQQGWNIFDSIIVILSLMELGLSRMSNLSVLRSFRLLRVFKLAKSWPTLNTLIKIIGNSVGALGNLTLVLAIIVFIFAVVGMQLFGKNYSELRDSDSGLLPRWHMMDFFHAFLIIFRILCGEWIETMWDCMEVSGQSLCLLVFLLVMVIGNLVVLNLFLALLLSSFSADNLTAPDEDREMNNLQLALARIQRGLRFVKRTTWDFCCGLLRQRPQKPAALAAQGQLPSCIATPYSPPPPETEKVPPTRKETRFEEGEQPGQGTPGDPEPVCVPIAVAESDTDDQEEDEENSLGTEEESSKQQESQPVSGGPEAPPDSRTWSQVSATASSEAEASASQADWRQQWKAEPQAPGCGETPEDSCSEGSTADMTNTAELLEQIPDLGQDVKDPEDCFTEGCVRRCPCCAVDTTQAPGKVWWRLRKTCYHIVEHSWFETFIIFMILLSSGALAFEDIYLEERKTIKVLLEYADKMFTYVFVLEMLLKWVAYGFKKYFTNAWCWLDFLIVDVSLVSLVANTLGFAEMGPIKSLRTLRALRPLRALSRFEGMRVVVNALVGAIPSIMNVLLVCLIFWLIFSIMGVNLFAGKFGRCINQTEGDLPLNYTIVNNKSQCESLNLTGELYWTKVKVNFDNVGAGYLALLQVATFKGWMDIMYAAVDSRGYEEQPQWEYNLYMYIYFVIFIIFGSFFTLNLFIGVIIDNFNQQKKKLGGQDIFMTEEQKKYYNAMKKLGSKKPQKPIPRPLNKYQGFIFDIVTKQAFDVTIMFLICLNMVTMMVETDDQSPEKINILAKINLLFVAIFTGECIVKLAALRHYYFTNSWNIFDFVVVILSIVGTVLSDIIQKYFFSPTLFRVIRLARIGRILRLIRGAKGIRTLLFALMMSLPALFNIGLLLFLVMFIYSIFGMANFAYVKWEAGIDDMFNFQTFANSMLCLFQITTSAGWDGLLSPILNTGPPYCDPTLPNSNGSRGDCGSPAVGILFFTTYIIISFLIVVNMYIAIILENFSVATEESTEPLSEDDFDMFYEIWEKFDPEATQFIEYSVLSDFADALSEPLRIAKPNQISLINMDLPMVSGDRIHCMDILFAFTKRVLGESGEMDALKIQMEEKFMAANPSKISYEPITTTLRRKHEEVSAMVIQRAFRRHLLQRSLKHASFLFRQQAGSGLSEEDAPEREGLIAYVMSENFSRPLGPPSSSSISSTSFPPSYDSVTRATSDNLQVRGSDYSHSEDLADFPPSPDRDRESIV

In the case of `COc1ccc(NS(C)(=O)=O)cc1-c1cccc(OC(F)(F)F)c1` [PT-109, N-[6-methoxy-3′-(trifluoromethoxy)biphenyl-3-yl]methanesulfonamide], the inhibition at 10 µM was found to be 35.1%.

Take `CS(=O)(=O)Nc1ccc(-c2ccc(Oc3ccccc3)cc2)cc1` [PT-033, N-(4′-phenoxybiphenyl-4-yl)methanesulfonamide]: the inhibition at 10 µM is 15.1%.

`CS(=O)(=O)Nc1ccc(-c2cccc(F)c2)c(Cl)c1` [PT-052, N-(2-chloro-3′-fluorobiphenyl-4-yl)methanesulfonamide]: the inhibition at 10 µM came out at 50.1%. Same read-out and setting: for `CS(=O)(=O)Nc1ccc(-c2ccc(C(F)(F)F)cc2)cc1C(=O)O` [PT-122, 4-[(methylsulfonyl)amino]-4′-(trifluoromethyl)biphenyl-3-carboxylic acid] the value was 25.4%; for `COc1cc(NS(C)(=O)=O)ccc1-c1ccc(OC(F)(F)F)cc1` [PT-009, N-[2-methoxy-4′-(trifluoromethoxy)biphenyl-4-yl]methanesulfonamide], 20.9%; for `CC(C)(C)OC(=O)CN(c1ccc(-c2cccc(OC(F)(F)F)c2)c(F)c1)S(C)(=O)=O` [PT-101, tert-butyl N-[2-fluoro-3′-(trifluoromethoxy)biphenyl-4-yl]-N-(methylsulfonyl)glycinate], 72.9%.

In the case of `COc1cc(N(Cc2ccc(C(=O)O)cc2)S(C)(=O)=O)ccc1-c1ccc(Oc2ccccc2)cc1` [PT-134, 4-((N-(2-methoxy-4′-phenoxybiphenyl-4-yl)methylsulfonamido)methyl)benzoic acid], the inhibition at 10 µM worked out at 3.9%.

In the case of `Cc1cc(N(Cc2ccc([N+](=O)[O-])cc2)S(C)(=O)=O)ccc1-c1ccc(Oc2ccccc2)cc1` [PT-143, N-(2-methyl-4′-phenoxybiphenyl-4-yl)-N-(4-nitrobenzyl)methanesulfonamide], the inhibition at 10 µM was 8.7%. For `Cc1cc(N(Cc2ccc(C(=O)O)cc2)S(C)(=O)=O)ccc1-c1ccc(Oc2ccccc2)c(F)c1` [PT-141, 4-((N-(3′-fluoro-2-methyl-4′-phenoxybiphenyl-4-yl)methylsulfonamido)methyl)benzoic acid], the inhibition at 10 µM stood at 23.8%. Same read-out and setting: for `CS(=O)(=O)Nc1ccc(-c2ccc(C(F)(F)F)cc2)c(N)c1` [PT-164, N-(2-amino-4′-(trifluoromethyl)biphenyl-4-yl)methanesulfonamide] the value was 12.2%. On the same count and under the same terms, for `CS(=O)(=O)Nc1ccc(-c2ccc(F)c(F)c2)cc1` [PT-002, N-(3′,4′-difluorobiphenyl-4-yl)methanesulfonamide] the value was 21.8%; for `Cc1cc(NS(C)(=O)=O)ccc1-c1ccc(F)cc1` [PT-056, N-(4′-fluoro-2-methylbiphenyl-4-yl)methanesulfonamide], 40.8%.

In the case of `CS(=O)(=O)Nc1ccc(-c2cccc(OC(F)(F)F)c2)c(C(F)(F)F)c1` [PT-015, N-[3′-(trifluoromethoxy)-2-(trifluoromethyl)biphenyl-4-yl]methanesulfonamide], the inhibition at 10 µM was found to be 60.8%. On the same count and under the same terms, for `CC(C)Oc1ccc(-c2ccc(NS(=O)(=O)C3CC3)c(-c3nn[nH]n3)c2)cc1` [PT-157, N-(4′-isopropoxy-3-(2H-tetrazol-5-yl)biphenyl-4-yl)cyclopropanesulfonamide] the value was 5.8%. On the same count and under the same terms, for `CN1CCN(CCN(c2ccc(-c3ccc(Cl)c(F)c3)c(Cl)c2)S(C)(=O)=O)CC1` [PT-063, N-(2,4′-dichloro-3′-fluorobiphenyl-4-yl)-N-[2-(4-methylpiperazin-1-yl)ethyl]methanesulfonamide] the value was 48.8%; for `O=C(NCCO)c1cc(-c2ccc(C(F)(F)F)cc2)ccc1NS(=O)(=O)C1CC1` [PT-162, 4-(cyclopropanesulfonamido)-N-(2-hydroxyethyl)-4′-(trifluoromethyl)biphenyl-3-carboxamide], -5.3%. The same measure, in the same setting: for `CNC(=O)c1cc(N(Cc2ccc(S(C)(=O)=O)cc2)S(C)(=O)=O)ccc1-c1ccc(Oc2ccccc2)cc1` [PT-138, N-methyl-4-(N-(4-(methylsulfonyl)benzyl)methylsulfonamido)-4′-phenoxybiphenyl-2-carboxamide] the value was 12.6%; for `CS(=O)(=O)Nc1ccc(-c2ccc(F)cc2F)c(Cl)c1` [PT-024, N-(2-chloro-2′,4′-difluorobiphenyl-4-yl)methanesulfonamide], 43.5%. Consider `CS(=O)(=O)Nc1ccc(-c2cccc(OC(F)(F)F)c2)cc1OC(F)(F)F` [PT-100, N-[3,3′-bis(trifluoromethoxy)biphenyl-4-yl]methanesulfonamide], for which the inhibition at 10 µM was -0.7%. The same measure, in the same setting: for `CS(=O)(=O)Nc1cccc(-c2ccc(C(F)(F)F)c(F)c2)c1` [PT-132, N-(3′-fluoro-4′-(trifluoromethyl)biphenyl-3-yl)methanesulfonamide] the value was 65.9%; for `CS(=O)(=O)Nc1ccc(-c2ccc(Oc3ccccc3)cc2)cc1C(=O)O` [PT-120, 4-[(methylsulfonyl)amino]-4′-phenoxybiphenyl-3-carboxylic acid], 27%.

For the compound `Cc1cc(-c2ccc(Oc3ccccc3)cc2)c(Cl)cc1NS(C)(=O)=O` [PT-041, N-(2-chloro-5-methyl-4′-phenoxybiphenyl-4-yl)methanesulfonamide], the inhibition at 1 µM came to 45% and the inhibition at 10 µM amounted to 59.3%. Turning to `Cc1cc(-c2ccc(Oc3ccccc3)cc2)ccc1NS(C)(=O)=O` [PT-042, N-(3-methyl-4′-phenoxybiphenyl-4-yl)methanesulfonamide], the inhibition at 10 µM is 25.5%. Same read-out and setting: for `N#Cc1cc(-c2ccc(Oc3ccccc3)cc2)ccc1NS(=O)(=O)C1CC1` [PT-115, N-(3-cyano-4′-phenoxybiphenyl-4-yl)cyclopropanesulfonamide] the value was 61.8%; for `CS(=O)(=O)N(Cc1ccc(CC(=O)O)cc1)c1ccc(-c2ccc(Oc3ccccc3)cc2)c(Cl)c1` [PT-161, 2-(4-((N-(2-chloro-4′-phenoxybiphenyl-4-yl)methylsulfonamido)methyl)phenyl)acetic acid], 30.9%; for `Cc1cc(-c2ccc(Oc3ccccc3)cc2)c(Cl)cc1N(CC(=O)O)S(C)(=O)=O` [PT-106, N-(2-chloro-5-methyl-4′-phenoxybiphenyl-4-yl)-N-(methylsulfonyl)glycine], 42%. As to `Cc1cc(NS(C)(=O)=O)ccc1-c1ccc(F)c(Cl)c1` [PT-039, N-(3′-chloro-4′-fluoro-2-methylbiphenyl-4-yl)methanesulfonamide], the inhibition at 10 µM was found to be 62.9%.

With `CS(=O)(=O)Nc1ccc(-c2cc(C(F)(F)F)ccc2F)c(Cl)c1` [PT-070, N-[2-chloro-2′-fluoro-5′-(trifluoromethyl)biphenyl-4-yl]methanesulfonamide], the inhibition at 10 µM is 69.7%. On the same count and under the same terms, for `O=S(=O)(Nc1ccc(-c2ccc(Oc3ccccc3)cc2)cc1)C1CC1` [PT-072, N-(4′-phenoxybiphenyl-4-yl)cyclopropanesulfonamide] the value was 35.6%. For the compound `CS(=O)(=O)Nc1ccc(-c2ccc(Cl)c(C(F)(F)F)c2)c(Cl)c1` [PT-058, N-[2,4′-dichloro-3′-(trifluoromethyl)biphenyl-4-yl]methanesulfonamide], the inhibition at 1 µM was found to be 42.5% and the inhibition at 10 µM came out at 78.5%. Consider `CS(=O)(=O)N(CC(=O)O)c1ccc(-c2ccc(Cl)c(F)c2)c(Cl)c1` [PT-092, N-(2,4′-dichloro-3′-fluorobiphenyl-4-yl)-N-(methylsulfonyl)glycine], for which the inhibition at 10 µM is -2.4%.

Regarding `COc1cc(NS(C)(=O)=O)ccc1-c1ccc(F)cc1` [PT-031, N-(4′-fluoro-2-methoxybiphenyl-4-yl)methanesulfonamide], the inhibition at 10 µM was determined as 17.1%. In the case of `COC(=O)c1cc(-c2ccc(Oc3ccccc3)cc2)ccc1NS(=O)(=O)C1CC1` [PT-116, methyl 4-[(cyclopropylsulfonyl)amino]-4′-phenoxybiphenyl-3-carboxylate], the inhibition at 10 µM came to 11.2%.
